Reference: PubChem BioAssay (NCI)
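1) Cells in 96-well plates. 2) Compound, 48 h, 5 concentrations. 3) Linear interpolation between surrounding doses. 4) Unreached endpoint = highest concentration. At the GI50, growth is halved. Definition used: TGI = concentration required for complete inhibition of growth.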

How the values were obtained:
Assay in all cases: NCI anticancer screen, dose series, 48 h
786-0 renal = tested on: 786-0 renal
A498 renal = tested on: A498 renal
A549 NSCLC = tested on: A549 NSCLC
ACHN renal = tested on: ACHN renal
BT-549 breast = tested on: BT-549 breast
CAKI-1 renal = tested on: CAKI-1 renal
CCRF-CEM leukemia = tested on: CCRF-CEM leukemia
COLO 205 colon = tested on: COLO 205 colon
DU-145 prostate = tested on: DU-145 prostate
EKVX NSCLC = tested on: EKVX NSCLC
HCC-2998 colon = tested on: HCC-2998 colon
HCT-116 colon = tested on: HCT-116 colon
HCT-15 colon = tested on: HCT-15 colon
HL-60(TB) leukemia = tested on: HL-60(TB) leukemia
HOP-62 NSCLC = tested on: HOP-62 NSCLC
HOP-92 NSCLC = tested on: HOP-92 NSCLC
HS 578T breast = tested on: HS 578T breast
HT29 colon = tested on: HT29 colon
IGROV1 ovarian = tested on: IGROV1 ovarian
K-562 leukemia = tested on: K-562 leukemia
KM12 colon = tested on: KM12 colon
LOX IMVI melanoma = tested on: LOX IMVI melanoma
M14 melanoma = tested on: M14 melanoma
MALME-3M melanoma = tested on: MALME-3M melanoma
MDA-MB-231 breast = tested on: MDA-MB-231 breast
MDA-MB-435 = tested on: MDA-MB-435
MOLT-4 leukemia = tested on: MOLT-4 leukemia
NCI-H226 lung = tested on: NCI-H226 lung
NCI-H23 lung = tested on: NCI-H23 lung
NCI-H460 lung = tested on: NCI-H460 lung
NCI-H522 lung = tested on: NCI-H522 lung
NCI/ADR-RES ovarian = tested on: NCI/ADR-RES ovarian
OVCAR-3 ovarian = tested on: OVCAR-3 ovarian
OVCAR-4 ovarian = tested on: OVCAR-4 ovarian
OVCAR-5 ovarian = tested on: OVCAR-5 ovarian
OVCAR-8 ovarian = tested on: OVCAR-8 ovarian
PC-3 prostate = tested on: PC-3 prostate
RPMI-8226 leukemia = tested on: RPMI-8226 leukemia
RXF 393 renal = tested on: RXF 393 renal
SF-268 CNS = tested on: SF-268 CNS
SF-295 CNS = tested on: SF-295 CNS
SF-539 CNS = tested on: SF-539 CNS
SK-MEL-2 melanoma = tested on: SK-MEL-2 melanoma
SK-MEL-28 melanoma = tested on: SK-MEL-28 melanoma
SK-MEL-5 melanoma = tested on: SK-MEL-5 melanoma
SK-OV-3 ovarian = tested on: SK-OV-3 ovarian
SN12C renal = tested on: SN12C renal
SNB-19 CNS = tested on: SNB-19 CNS
SNB-75 CNS = tested on: SNB-75 CNS
SR leukemia = tested on: SR leukemia
SW-620 colon = tested on: SW-620 colon
T-47D breast = tested on: T-47D breast
TK-10 renal = tested on: TK-10 renal
U251 CNS = tested on: U251 CNS
UACC-257 melanoma = tested on: UACC-257 melanoma
UACC-62 melanoma = tested on: UACC-62 melanoma
UO-31 renal = tested on: UO-31 renal

SMILES: O=C1/C(=C/c2cccc(Br)c2)COc2ccc(O)cc21
- GI50 (786-0 renal): 2.08 µM
- TGI (786-0 renal): 5.43 µM
- GI50 (A498 renal): 11.6 µM
- TGI (A498 renal): 23.9 µM
- GI50 (A549 NSCLC): 4.12 µM
- TGI (A549 NSCLC): 16.5 µM
- GI50 (ACHN renal): 1.89 µM
- TGI (ACHN renal): 4.16 µM
- GI50 (BT-549 breast): 3.01 µM
- TGI (BT-549 breast): 12.7 µM
- GI50 (CAKI-1 renal): 1.83 µM
- TGI (CAKI-1 renal): 5.12 µM
- GI50 (CCRF-CEM leukemia): 0.285 µM
- TGI (CCRF-CEM leukemia): 1.88 µM
- GI50 (COLO 205 colon): 3.33 µM
- TGI (COLO 205 colon): 11.1 µM
- GI50 (DU-145 prostate): 4.48 µM
- TGI (DU-145 prostate): 16.5 µM
- GI50 (EKVX NSCLC): 4.78 µM
- TGI (EKVX NSCLC): 17.4 µM
- GI50 (HCC-2998 colon): 1.8 µM
- TGI (HCC-2998 colon): 3.46 µM
- GI50 (HCT-116 colon): 1.45 µM
- TGI (HCT-116 colon): 2.99 µM
- GI50 (HCT-15 colon): 1.95 µM
- TGI (HCT-15 colon): 7.88 µM
- GI50 (HL-60(TB) leukemia): 1.88 µM
- TGI (HL-60(TB) leukemia): 5.75 µM
- GI50 (HOP-62 NSCLC): 11.7 µM
- TGI (HOP-62 NSCLC): 24.3 µM
- GI50 (HOP-92 NSCLC): 2.65 µM
- TGI (HOP-92 NSCLC): 13.6 µM
- GI50 (HS 578T breast): 3.47 µM
- TGI (HS 578T breast): 26.2 µM
- GI50 (HT29 colon): 2.43 µM
- TGI (HT29 colon): 10.2 µM
- GI50 (IGROV1 ovarian): 1.92 µM
- TGI (IGROV1 ovarian): 4.75 µM
- GI50 (K-562 leukemia): 1.24 µM
- TGI (K-562 leukemia): 11 µM
- GI50 (KM12 colon): 1.75 µM
- TGI (KM12 colon): 3.74 µM
- GI50 (LOX IMVI melanoma): 1.7 µM
- TGI (LOX IMVI melanoma): 3.41 µM
- GI50 (M14 melanoma): 3.42 µM
- TGI (M14 melanoma): 12.3 µM
- GI50 (MALME-3M melanoma): 2.36 µM
- TGI (MALME-3M melanoma): 6.65 µM
- GI50 (MDA-MB-231 breast): 2.88 µM
- TGI (MDA-MB-231 breast): 9.38 µM
- GI50 (MDA-MB-435): 2.13 µM
- TGI (MDA-MB-435): 5.35 µM
- GI50 (MOLT-4 leukemia): 2.46 µM
- TGI (MOLT-4 leukemia): 10.9 µM
- GI50 (NCI-H226 lung): 4.92 µM
- TGI (NCI-H226 lung): 26 µM
- GI50 (NCI-H23 lung): 3.79 µM
- TGI (NCI-H23 lung): 15.6 µM
- GI50 (NCI-H460 lung): 3.69 µM
- TGI (NCI-H460 lung): 13.2 µM
- GI50 (NCI-H522 lung): 1.46 µM
- TGI (NCI-H522 lung): 3.11 µM
- GI50 (NCI/ADR-RES ovarian): 3.24 µM
- TGI (NCI/ADR-RES ovarian): 13.5 µM
- GI50 (OVCAR-3 ovarian): 1.82 µM
- TGI (OVCAR-3 ovarian): 3.89 µM
- GI50 (OVCAR-4 ovarian): 3.55 µM
- TGI (OVCAR-4 ovarian): 14.1 µM
- GI50 (OVCAR-5 ovarian): 3.72 µM
- TGI (OVCAR-5 ovarian): 14.5 µM
- GI50 (OVCAR-8 ovarian): 3.4 µM
- TGI (OVCAR-8 ovarian): 12.9 µM
- GI50 (PC-3 prostate): 2.04 µM
- TGI (PC-3 prostate): 5.57 µM
- GI50 (RPMI-8226 leukemia): 0.26 µM
- TGI (RPMI-8226 leukemia): 0.761 µM
- GI50 (RXF 393 renal): 2.12 µM
- TGI (RXF 393 renal): 5.99 µM
- GI50 (SF-268 CNS): 3.33 µM
- TGI (SF-268 CNS): 18.2 µM
- GI50 (SF-295 CNS): 10.4 µM
- TGI (SF-295 CNS): 23.6 µM
- GI50 (SF-539 CNS): 1.89 µM
- TGI (SF-539 CNS): 4.58 µM
- GI50 (SK-MEL-2 melanoma): 3.79 µM
- TGI (SK-MEL-2 melanoma): 14.2 µM
- GI50 (SK-MEL-28 melanoma): 2.14 µM
- TGI (SK-MEL-28 melanoma): 5.21 µM
- GI50 (SK-MEL-5 melanoma): 1.91 µM
- TGI (SK-MEL-5 melanoma): 4.35 µM
- GI50 (SK-OV-3 ovarian): 7.33 µM
- TGI (SK-OV-3 ovarian): 19.8 µM
- GI50 (SN12C renal): 1.85 µM
- TGI (SN12C renal): 4.28 µM
- GI50 (SNB-19 CNS): 2.43 µM
- TGI (SNB-19 CNS): 7.47 µM
- GI50 (SNB-75 CNS): 1.79 µM
- TGI (SNB-75 CNS): 14.6 µM
- GI50 (SR leukemia): 0.47 µM
- TGI (SR leukemia): 5.2 µM
- GI50 (SW-620 colon): 0.683 µM
- TGI (SW-620 colon): 2.49 µM
- GI50 (T-47D breast): 2.18 µM
- TGI (T-47D breast): 6.28 µM
- GI50 (TK-10 renal): 3.94 µM
- TGI (TK-10 renal): 15.6 µM
- GI50 (U251 CNS): 1.49 µM
- TGI (U251 CNS): 3 µM
- GI50 (UACC-257 melanoma): 3.93 µM
- TGI (UACC-257 melanoma): 15.9 µM
- GI50 (UACC-62 melanoma): 2.37 µM
- TGI (UACC-62 melanoma): 6.35 µM
- GI50 (UO-31 renal): 1.51 µM
- TGI (UO-31 renal): 3.46 µM
